Results published in ChEMBL document CHEMBL1201862, “PubChem BioAssay data set” (2004).
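Growth conditions: 96-well plates. Treatment: test compound, 48 hours, 5 concentrations. Analysis: linear interpolation between bracketing concentrations; unreached endpoints set to highest concentration. GI50 = concentration required for 50% inhibition of growth.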 Activity calls are given as the source filed them. Rule as the data show it: active = GI50 up to about 1.1 µM and inactive = higher.

Key:
Experiment in all cases: NCI anticancer screen, dose series, 48 h
MOLT-4 = test system: MOLT-4
SNB-75 = test system: SNB-75
RXF 393 = test system: RXF 393
SK-MEL-5 = test system: SK-MEL-5
SNB-19 = test system: SNB-19
IGROV-1 = test system: IGROV-1
SW-620 = test system: SW-620
A498 = test system: A498
TK-10 = test system: TK-10
U-251 = test system: U-251
HT-29 = test system: HT-29
OVCAR-4 = test system: OVCAR-4
OVCAR-5 = test system: OVCAR-5
SK-MEL-28 = test system: SK-MEL-28
M14 = test system: M14
HCT-116 = test system: HCT-116
HOP-92 = test system: HOP-92
UACC-62 = test system: UACC-62
SK-MEL-2 = test system: SK-MEL-2

SMILES	GI50 (MOLT-4)	GI50 (SNB-75)	GI50 (RXF 393)	GI50 (SK-MEL-5)	GI50 (SNB-19)	GI50 (IGROV-1)	GI50 (SW-620)	GI50 (A498)	GI50 (TK-10)	GI50 (U-251)	GI50 (HT-29)	GI50 (OVCAR-4)	GI50 (OVCAR-5)	GI50 (SK-MEL-28)	GI50 (M14)	GI50 (HCT-116)	GI50 (HOP-92)	GI50 (UACC-62)	GI50 (SK-MEL-2)
Cc1ccc(-c2cc(-c3ccccc3)c(C#N)c(=O)[nH]2)cc1	> 100 µM (inactive)	53.2 µM (inactive)	> 100 µM (inactive)	> 100 µM (inactive)	> 100 µM (inactive)	> 100 µM (inactive)	> 100 µM (inactive)	> 100 µM (inactive)	> 100 µM (inactive)	> 100 µM (inactive)	> 100 µM (inactive)	79.1 µM (inactive)	> 100 µM (inactive)	> 100 µM (inactive)	> 100 µM (inactive)	> 100 µM (inactive)	56.9 µM (inactive)	> 100 µM (inactive)	
O=C1CCCC2=C1CC1=C(CCCC1=O)N2c1ccc([N+](=O)[O-])cc1	> 100 µM (inactive)	> 100 µM (inactive)	> 100 µM (inactive)	> 100 µM (inactive)	> 100 µM (inactive)	> 100 µM (inactive)	> 100 µM (inactive)	> 100 µM (inactive)	> 100 µM (inactive)	> 100 µM (inactive)	> 100 µM (inactive)	> 100 µM (inactive)	> 100 µM (inactive)	> 100 µM (inactive)	> 100 µM (inactive)			> 100 µM (inactive)	
Cc1ccc(S(=O)(=O)OC(c2ccc(Cl)cc2Cl)C2OC(=O)c3ccccc32)cc1 (stereo not drawn)	30.2 µM (inactive)		67.1 µM (inactive)	53.1 µM (inactive)	42.7 µM (inactive)	97.3 µM (inactive)	71.4 µM (inactive)		> 100 µM (inactive)	56.4 µM (inactive)	38.6 µM (inactive)	47.5 µM (inactive)	> 100 µM (inactive)	> 100 µM (inactive)	> 100 µM (inactive)	30.8 µM (inactive)		53.8 µM (inactive)	73.6 µM (inactive)
N#CCc1c(-c2ccccc2)n(S(=O)(=O)c2ccccc2)c2ccccc12	41.3 µM (inactive)	6.78 µM (inactive)		> 100 µM (inactive)	63.5 µM (inactive)	> 100 µM (inactive)	> 100 µM (inactive)		> 100 µM (inactive)	> 100 µM (inactive)	> 100 µM (inactive)	37.3 µM (inactive)	> 100 µM (inactive)	> 100 µM (inactive)	> 100 µM (inactive)	37.1 µM (inactive)	8.89 µM (inactive)	94.2 µM (inactive)	> 100 µM (inactive)
O=S(=O)(O)c1ccccc1/N=N\c1ccc(/N=N/c2c(O)ccc3ccccc23)c(S(=O)(=O)O)c1	> 100 µM (inactive)	> 100 µM (inactive)	> 100 µM (inactive)	> 100 µM (inactive)	> 100 µM (inactive)	> 100 µM (inactive)	> 100 µM (inactive)		> 100 µM (inactive)	> 100 µM (inactive)	> 100 µM (inactive)	> 100 µM (inactive)	> 100 µM (inactive)	> 100 µM (inactive)	> 100 µM (inactive)	> 100 µM (inactive)	> 100 µM (inactive)	> 100 µM (inactive)	> 100 µM (inactive)
COc1ccc(C(=O)C(C(=O)CCC(=O)Nc2cccc(Cl)c2)c2ccc(OC)cc2)cc1 (stereo not drawn)	> 100 µM (inactive)	61.2 µM (inactive)		> 100 µM (inactive)	> 100 µM (inactive)	> 100 µM (inactive)	> 100 µM (inactive)	> 100 µM (inactive)	> 100 µM (inactive)	> 100 µM (inactive)	> 100 µM (inactive)	> 100 µM (inactive)	9.42 µM (inactive)	> 100 µM (inactive)	> 100 µM (inactive)	> 100 µM (inactive)	> 100 µM (inactive)	> 100 µM (inactive)	> 100 µM (inactive)
Cc1cc2c(cc1C)[n+]([O-])c(C(=O)C/C(=N/OCCCc1ccccc1)C(=O)Nc1cc(Cl)ccc1Cl)c(C)[n+]2[O-]	22.9 µM (inactive)	> 100 µM (inactive)	> 100 µM (inactive)	> 100 µM (inactive)	> 100 µM (inactive)	> 100 µM (inactive)	> 100 µM (inactive)	> 100 µM (inactive)	> 100 µM (inactive)	> 100 µM (inactive)	> 100 µM (inactive)	> 100 µM (inactive)	> 100 µM (inactive)	> 100 µM (inactive)	> 100 µM (inactive)	> 100 µM (inactive)		> 100 µM (inactive)	0.0562 µM (active)
Cc1cn(C2C=CC(=O)C(C)O2)c(=O)[nH]c1=O (stereo not drawn)	18 µM (inactive)	15.5 µM (inactive)		14.7 µM (inactive)	21 µM (inactive)	18 µM (inactive)	15.1 µM (inactive)	38.1 µM (inactive)	15.1 µM (inactive)	15.3 µM (inactive)	17.1 µM (inactive)			14.9 µM (inactive)	15.3 µM (inactive)	12.2 µM (inactive)	15.9 µM (inactive)	15.7 µM (inactive)	
COC(=O)/C=C\S/C(=C(/c1ccccc1)n1ccc(C(=O)OC)n1)c1ccccc1	56.6 µM (inactive)	6.04 µM (inactive)	13.1 µM (inactive)	29.5 µM (inactive)	12.7 µM (inactive)	58.6 µM (inactive)	82.8 µM (inactive)		25.6 µM (inactive)	13 µM (inactive)	> 100 µM (inactive)	21.9 µM (inactive)	> 100 µM (inactive)	28.6 µM (inactive)	43.1 µM (inactive)	20.5 µM (inactive)	20.9 µM (inactive)	3.23 µM (inactive)	15.7 µM (inactive)
COc1ccc2c(c1OC)C(C=C(c1ccccc1)c1ccccc1)CN(C)C2 (stereo not drawn)	31.6 µM (inactive)	34.3 µM (inactive)		15.8 µM (inactive)	29.9 µM (inactive)	14.8 µM (inactive)	13.4 µM (inactive)	17 µM (inactive)	22 µM (inactive)	20 µM (inactive)	6.82 µM (inactive)	41.4 µM (inactive)	6.79 µM (inactive)	22.4 µM (inactive)	14.5 µM (inactive)	8.39 µM (inactive)	14.2 µM (inactive)	17.3 µM (inactive)	
O=C1CC(c2c(-c3ccccc3)[nH]c3ccccc23)C(=O)N1c1ccccc1 (stereo not drawn)	61.5 µM (inactive)	> 100 µM (inactive)	27.4 µM (inactive)	56.8 µM (inactive)		> 100 µM (inactive)	> 100 µM (inactive)	> 100 µM (inactive)	> 100 µM (inactive)	88.9 µM (inactive)	> 100 µM (inactive)	68.9 µM (inactive)	> 100 µM (inactive)	> 100 µM (inactive)	> 100 µM (inactive)	41.9 µM (inactive)		54.2 µM (inactive)	> 100 µM (inactive)
CCOC(=O)/C(C#N)=C(O)/C(=C/c1ccccc1Cl)NC(=O)c1ccccc1	> 100 µM (inactive)	> 100 µM (inactive)		> 100 µM (inactive)	> 100 µM (inactive)	> 100 µM (inactive)	18.8 µM (inactive)	> 100 µM (inactive)	> 100 µM (inactive)	> 100 µM (inactive)	> 100 µM (inactive)	> 100 µM (inactive)	> 100 µM (inactive)	> 100 µM (inactive)	> 100 µM (inactive)	30.3 µM (inactive)	> 100 µM (inactive)	> 100 µM (inactive)	
O=C1C2C3C=C4c5ccccc5N(c5ccccc5)C4(C2C(=O)N1c1ccccc1)C1C(=O)N(c2ccccc2)C(=O)C31 (stereo not drawn)	3.3 µM (inactive)	65.8 µM (inactive)			> 100 µM (inactive)	> 10 µM (inactive)	> 100 µM (inactive)	2.34 µM (inactive)	> 100 µM (inactive)	> 100 µM (inactive)	6.56 µM (inactive)		> 100 µM (inactive)	8.17 µM (inactive)	> 100 µM (inactive)	> 100 µM (inactive)	2.4 µM (inactive)	3.61 µM (inactive)	> 100 µM (inactive)
O=C1c2c(c3c4ccccc4n4c3c3c2c2ccccc2n3C/C=C\C4)C(=O)N1Cc1ccccc1	> 100 µM (inactive)	30.2 µM (inactive)	> 100 µM (inactive)	> 100 µM (inactive)	> 100 µM (inactive)	> 100 µM (inactive)	> 100 µM (inactive)	> 100 µM (inactive)	> 100 µM (inactive)	46.5 µM (inactive)	> 100 µM (inactive)		> 100 µM (inactive)	> 100 µM (inactive)	> 100 µM (inactive)	> 100 µM (inactive)		> 100 µM (inactive)	
Cc1ccc(SSCCCCS(=O)O)cc1	> 100 µM (inactive)	14.1 µM (inactive)	12.7 µM (inactive)	11.5 µM (inactive)	34.7 µM (inactive)	2.91 µM (inactive)	17.5 µM (inactive)	19.1 µM (inactive)	19.9 µM (inactive)	10.6 µM (inactive)	21.7 µM (inactive)	15.8 µM (inactive)	45.4 µM (inactive)	17.1 µM (inactive)	16.4 µM (inactive)	20.7 µM (inactive)		15.3 µM (inactive)	25.1 µM (inactive)
O=C(O)C[C@H]1CCCCC12CCOC2=O (stereo partly drawn)	> 100 µM (inactive)	> 100 µM (inactive)	> 100 µM (inactive)	> 100 µM (inactive)	> 100 µM (inactive)	> 100 µM (inactive)	> 100 µM (inactive)		> 100 µM (inactive)	> 100 µM (inactive)	> 100 µM (inactive)	> 100 µM (inactive)	> 100 µM (inactive)	> 100 µM (inactive)	> 100 µM (inactive)	> 100 µM (inactive)	> 100 µM (inactive)	> 100 µM (inactive)	87.5 µM (inactive)
